According to patent US8021664B2, “Tumor antigens Bfa5 for prevention and/or treatment of cancer” (Sanofi Pasteur Limited, priority 2003, dated 2011):
Where no end group is shown, it is not given here. KLH = keyhole limpet hemocyanin carrier protein

Key:
[1] = tested on: peptide-loaded T2 cells; assay: 51Cr-release CTL assay of peptide-activated T cells; conditions: a peptide given is positive
Procedure: In addition to ELISPOT analysis, human T cells activated by BFA5 peptides were assayed to determine their ability to function as CTL. The cells were activated using peptide-pulsed dendritic cells followed by CD40 ligand-activated B cells (5 rounds of stimulation). […] Isolated T cells were tested in ^51Cr-release assays using peptide-loaded T2 cells. The % specific lysis at a 10:1, 5:1, and 1:1 T-cell to target ratio is shown for T2 cells pulsed with either pools of BFA5/NYBR-1 peptides or with individual peptides.

[2] = tested on: HLA-A*0201 human T cells; assay: IFN-γ ELISPOT on human T-cell cultures activated with BFA5 peptides pulsed on autologous dendritic cells; assay type: cell-based; conditions: for BFA5 peptides eliciting high IFN-γ release (>200 spots/100,000 cells): a peptide given is positive
Procedure: A library of 100 peptides from the BFA5/NYBR-1 coding sequence that are predicted to be medium to high binders to HLA-A*0201 were designed using Rammensee and Parker algorithms. The library was sub-divided into 10 pools of ten peptides (Table III), and each pool was used to activate 10 different T cell cultures after pulsing peptides on to mature autologous dendritic cells.
ELISPOT analysis was performed on human T-cell cultures activated through four rounds of stimulation with each pool of BFA5 peptides. Reactivity against a CMV pp 65 peptide and a Flu matrix peptide were used as positive controls for T-cell activation in the experiments. Each experiment was performed with PBMC and dendritic cells from a single HLA-A*0201^+ donor designated as “AP10”. […] Similar results were obtained for both BFA4 and BFA5/NYBR-1 with a different HLA-A*0201. […] Cultures having a reading of 600 spots have more than this number of spots.
A large number of the BFA5 peptide pools of are reactive as shown by the high levels of IFN-γ production. Each reactive peptide pool was then separated into individual peptides and analyzed for immunogencity using ELISPOT analysis to isolate single reactive BFA5 peptides. BFA5 is highly immunogenic with several reactive single peptides than that of BFA4. Similar results were obtained in two independent PBMC culture experiments.

[3] = Rabbit immunization with BFA5 peptides, serum IgG titer; assay type: in vivo; conditions: for IgG titer × 10^5 (After first Immunization Rb1/Rb2): after first immunization (peptide in FCA); for IgG titer × 10^5 (After second Immunization Rb1/Rb2): after second immunization (KLH-coupled peptide in FIA)
Procedure: Prebleed samples from rabbits were processed and stored at −20° C. Rabbits were immunized as follows: 1) the peptides were administered as an emulsion with Freund's Complete Adjuvant (FCA); and, 2) two weeks later, the peptides were coupled with Keyhole-Limpet Hemocyanin (KLH)-coupled and administered as an emulsion with Freund's Incomplete Adjuvant FIA.

72 (SLKINLNYA; listed as Homo sapiens) [compound 72]
BFA5 peptides inducing CTL lysis of pulsed cells ([1]; Donor AP31): SLKINLNVA
BFA5 peptides eliciting high IFN-γ release (>200 spots/100,000 cells) ([2]; Donor AP10): SLKINLNYA
BFA5 peptides eliciting high IFN-γ release (>200 spots/100,000 cells) ([2]; Donor AP31): SLKINLNYA

KLH-RLTLNQEEEKRRNADILNEKIRE ({KLH}-RLTLNQEEEKRRNADILNEKIRE; listed as Homo sapiens) [CLP 2980]
IgG titer × 10^5 (After first Immunization Rb1/Rb2) ([3]; rabbit Rb1): 25 × 10^5
IgG titer × 10^5 (After second Immunization Rb1/Rb2) ([3]; rabbit Rb1): 1024 × 10^5
IgG titer × 10^5 (After first Immunization Rb1/Rb2) ([3]; rabbit Rb2): 12 × 10^5
IgG titer × 10^5 (After second Immunization Rb1/Rb2) ([3]; rabbit Rb2): 128 × 10^5

81 (ILKEKNAEL; listed as Homo sapiens) [compound 81]
BFA5 peptides eliciting high IFN-γ release (>200 spots/100,000 cells) ([2]; Donor AP10): ILKEKNAEL
BFA5 peptides eliciting high IFN-γ release (>200 spots/100,000 cells) ([2]; Donor AP31): ILKEKNAEL

74 (ATCGMKVSI; listed as Homo sapiens) [compound 74]
BFA5 peptides inducing CTL lysis of pulsed cells ([1]; Donor AP10): ATCGMKVSI
BFA5 peptides eliciting high IFN-γ release (>200 spots/100,000 cells) ([2]; Donor AP10): ATCGMKVSI

KLH-MTKRKKTINLNIQDAQKRTALHW ({KLH}-MTKRKKTINLNIQDAQKRTALHW; listed as Homo sapiens) [CLP 2977]
IgG titer × 10^5 (After first Immunization Rb1/Rb2) ([3]; rabbit Rb1): 25 × 10^5
IgG titer × 10^5 (After second Immunization Rb1/Rb2) ([3]; rabbit Rb1): 256 × 10^5
IgG titer × 10^5 (After first Immunization Rb1/Rb2) ([3]; rabbit Rb2): 6 × 10^5
IgG titer × 10^5 (After second Immunization Rb1/Rb2) ([3]; rabbit Rb2): 64 × 10^5

51 (NLNYAGDAL; listed as Homo sapiens) [compound 51]
BFA5 peptides eliciting high IFN-γ release (>200 spots/100,000 cells) ([2]; Donor AP10): NLNYAGDAL
BFA5 peptides eliciting high IFN-γ release (>200 spots/100,000 cells) ([2]; Donor AP31): NLNYAGDAL

12 (SVPNKALEL; listed as Homo sapiens) [compound 12]
BFA5 peptides eliciting high IFN-γ release (>200 spots/100,000 cells) ([2]; Donor AP10): SVPNKALEL

KLH-DEILPSESKQKDYEENSWDTESL ({KLH}-DEILPSESKQKDYEENSWDTESL; listed as Homo sapiens) [CLP 2979]
IgG titer × 10^5 (After first Immunization Rb1/Rb2) ([3]; rabbit Rb1): 12 × 10^5
IgG titer × 10^5 (After second Immunization Rb1/Rb2) ([3]; rabbit Rb1): 256 × 10^5
IgG titer × 10^5 (After first Immunization Rb1/Rb2) ([3]; rabbit Rb2): 25 × 10^5
IgG titer × 10^5 (After second Immunization Rb1/Rb2) ([3]; rabbit Rb2): 512 × 10^5

84 (NLVDVYGNM; listed as Homo sapiens) [compound 84]
BFA5 peptides inducing CTL lysis of pulsed cells ([1]; Donor AP10): NLVDVYGNM
BFA5 peptides eliciting high IFN-γ release (>200 spots/100,000 cells) ([2]; Donor AP10): NLVDVYGNM

57 (KSQEPAFHI; listed as Homo sapiens) [compound 57]
BFA5 peptides eliciting high IFN-γ release (>200 spots/100,000 cells) ([2]; Donor AP31): KSQEPAFHI

78 (VFAADICGV; listed as Homo sapiens) [compound 78]
BFA5 peptides eliciting high IFN-γ release (>200 spots/100,000 cells) ([2]; Donor AP31): VFAADICGV

67 (VLKKKLSEA; listed as Homo sapiens) [compound 67]
BFA5 peptides eliciting high IFN-γ release (>200 spots/100,000 cells) ([2]; Donor AP31): VLKKKLSEA

61 (MLKKEIAML; listed as Homo sapiens) [compound 61]
BFA5 peptides eliciting high IFN-γ release (>200 spots/100,000 cells) ([2]; Donor AP31): MLKKEIAML

37 (SLTPLLLSI; listed as Homo sapiens) [compound 37]
BFA5 peptides inducing CTL lysis of pulsed cells ([1]; Donor AP31): SLTPLLLSI
BFA5 peptides eliciting high IFN-γ release (>200 spots/100,000 cells) ([2]; Donor AP10): SLTPLLLSI
BFA5 peptides eliciting high IFN-γ release (>200 spots/100,000 cells) ([2]; Donor AP31): SLTPLLLSI

BFA4: tumor antigen BFA4 (SEQ ID NOS.: 1 and 2), compared with BFA5 in T-cell ELISPOT
ELISPOT reactivity (IFN-γ production) of peptide pools ([2]; four rounds of stimulation, HLA-A*0201+ donor AP10, counts per 100,000 cells): markedly reactive

85 (KCTALMLAV; listed as Homo sapiens) [compound 85]
BFA5 peptides eliciting high IFN-γ release (>200 spots/100,000 cells) ([2]; Donor AP10): KCTALMLAV

8 (KVSIPTKAL; listed as Homo sapiens) [compound 8]
BFA5 peptides inducing CTL lysis of pulsed cells ([1]; Donor AP31): KVSIPTKAL
BFA5 peptides eliciting high IFN-γ release (>200 spots/100,000 cells) ([2]; Donor AP10): KVSIPTKAL

59 (MLKLEIATL; listed as Homo sapiens) [compound 59]
BFA5 peptides inducing CTL lysis of pulsed cells ([1]; Donor AP31): MLKLEIATL
BFA5 peptides eliciting high IFN-γ release (>200 spots/100,000 cells) ([2]; Donor AP10): MLKLEIATL
BFA5 peptides eliciting high IFN-γ release (>200 spots/100,000 cells) ([2]; Donor AP31): MLKLEIATL

32 (AVYSEILSV; listed as Homo sapiens) [compound 32]
BFA5 peptides eliciting high IFN-γ release (>200 spots/100,000 cells) ([2]; Donor AP10): AVYSEILSV

77 (AELQMTLKL; listed as Homo sapiens) [compound 77]
BFA5 peptides inducing CTL lysis of pulsed cells ([1]; Donor AP10): AELQMTLKL
BFA5 peptides inducing CTL lysis of pulsed cells ([1]; Donor AP31): AELQMTLKL
BFA5 peptides eliciting high IFN-γ release (>200 spots/100,000 cells) ([2]; Donor AP10): AELQMTLKL

63 (ALRIQDIEL; listed as Homo sapiens) [compound 63]
BFA5 peptides eliciting high IFN-γ release (>200 spots/100,000 cells) ([2]; Donor AP10): ALRIQDIEL

24 (QLQSKNMWL; listed as Homo sapiens) [compound 24]
BFA5 peptides inducing CTL lysis of pulsed cells ([1]; Donor AP31): QLQSKNMWL
BFA5 peptides eliciting high IFN-γ release (>200 spots/100,000 cells) ([2]; Donor AP10): QLQSKNMWL
BFA5 peptides eliciting high IFN-γ release (>200 spots/100,000 cells) ([2]; Donor AP31): QLQSKNMWL

KLH-NYNNHLKNRIYQYEKEKAETENS ({KLH}-NYNNHLKNRIYQYEKEKAETENS; listed as Homo sapiens) [CLP 2982]
IgG titer × 10^5 (After first Immunization Rb1/Rb2) ([3]; rabbit Rb1): 2/2 × 10^5
IgG titer × 10^5 (After second Immunization Rb1/Rb2) ([3]; rabbit Rb1): 64 × 10^5
IgG titer × 10^5 (After first Immunization Rb1/Rb2) ([3]; rabbit Rb2): 2/2 × 10^5
IgG titer × 10^5 (After second Immunization Rb1/Rb2) ([3]; rabbit Rb2): 32 × 10^5

54 (GVTAEHYAV; listed as Homo sapiens) [compound 54]
BFA5 peptides eliciting high IFN-γ release (>200 spots/100,000 cells) ([2]; Donor AP31): GVTAEHYAV

11 (TVSQKDVCL; listed as Homo sapiens) [compound 11]
BFA5 peptides eliciting high IFN-γ release (>200 spots/100,000 cells) ([2]; Donor AP10): TVSQKDVCL

30 (KVMEINREV; listed as Homo sapiens) [compound 30]
BFA5 peptides eliciting high IFN-γ release (>200 spots/100,000 cells) ([2]; Donor AP10): KVMEINREV

28 (SLSKILDTV; listed as Homo sapiens) [compound 28]
BFA5 peptides inducing CTL lysis of pulsed cells ([1]; Donor AP31): SLSKILDTV
BFA5 peptides eliciting high IFN-γ release (>200 spots/100,000 cells) ([2]; Donor AP10): SLSKILDTV
BFA5 peptides eliciting high IFN-γ release (>200 spots/100,000 cells) ([2]; Donor AP31): SLSKILDTV

KLH-TSEKFTWPAKGRPRKIAWEKKED ({KLH}-TSEKFTWPAKGRPRKIAWEKKED; listed as Homo sapiens) [CLP 2978]
IgG titer × 10^5 (After first Immunization Rb1/Rb2) ([3]; rabbit Rb1): 25/25 × 10^5
IgG titer × 10^5 (After second Immunization Rb1/Rb2) ([3]; rabbit Rb1): 64 × 10^5
IgG titer × 10^5 (After first Immunization Rb1/Rb2) ([3]; rabbit Rb2): 25/25 × 10^5
IgG titer × 10^5 (After second Immunization Rb1/Rb2) ([3]; rabbit Rb2): 256 × 10^5

9 (SIPTKALEL; listed as Homo sapiens) [compound 9]
BFA5 peptides inducing CTL lysis of pulsed cells ([1]; Donor AP31): SIPTKALEL
BFA5 peptides eliciting high IFN-γ release (>200 spots/100,000 cells) ([2]; Donor AP10): SIPTKALEL

49 (SVPNKAFEL; listed as Homo sapiens) [compound 49]
BFA5 peptides eliciting high IFN-γ release (>200 spots/100,000 cells) ([2]; Donor AP10): SVPNKAFEL

KLH-AENTMLTSKLKEKQDKEILEAEI ({KLH}-AENTMLTSKLKEKQDKEILEAEI; listed as Homo sapiens) [CLP 2981]
IgG titer × 10^5 (After first Immunization Rb1/Rb2) ([3]; rabbit Rb1): 8 × 10^5
IgG titer × 10^5 (After second Immunization Rb1/Rb2) ([3]; rabbit Rb1): 256 × 10^5
IgG titer × 10^5 (After first Immunization Rb1/Rb2) ([3]; rabbit Rb2): 4 × 10^5
IgG titer × 10^5 (After second Immunization Rb1/Rb2) ([3]; rabbit Rb2): 64 × 10^5
